This note sets out measurements from publication PMC4082028 (Biochemistry, 2013).

A word on the Kd: it is the equilibrium constant for the complex coming apart. Higher therefore signals lower affinity.

The assay concerns the target Aβ40 (amyloid β-protein, monomer) (Homo sapiens, UniProt P05067). In words: […]-1H HSQC NMR titration. Format: binding.

Sequence of Aβ40 (amyloid β-protein, monomer) (P05067 672-711 limits assumed): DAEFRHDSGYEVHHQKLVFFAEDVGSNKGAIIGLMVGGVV

With `COc1ccc(/C=C/C(=O)Nc2ccccc2C(=O)O)cc1OC` [tranilast, N-[3,4-Dimethoxycinnamoyl]-anthranilic acid], the Kd came to 310 ± 130 µM.
